Measured values published in ChEMBL document CHEMBL1140501, “Validation of an automated procedure for the prediction of relative free energies of binding on a set of aldose reductase inhibitors” (Bioorg Med Chem, 2007).

The compounds below were run against Aldo-keto reductase family 1 member B1 (Homo sapiens, UniProt P15121) (assay: Inhibition of aldose reductase).

SMILES | IC50 [nM]
O=C(O)Cc1nn(Cc2nc3ccc(C(F)(F)F)cc3s2)c(=O)c2ccccc12 | 3.1
O=C(O)Cc1c(Cl)cccc1Cl | 4400
Cc1ccccc1CC(=O)Nc1cc(C)c(S(=O)(=O)NCC(=O)O)c(C)c1 | 108
O=C(O)Cc1ccccc1 [PHENYLACETIC ACID] | 96000

Second part, the compound after the results:

IC50 [nM] | SMILES
176 | O=C(O)COc1ccccc1C(=O)NCc1ccc(Br)cc1F
15 | O=C1C[C@@]2(C(=O)N1)C(=O)N(Cc1ccc(Br)cc1F)C(=O)c1cccn12
190 | O=C1C[C@]2(C(=O)N1)C(=O)N(Cc1ccc(Br)cc1F)C(=O)c1cccn12
30 | O=C(O)COc1cc(F)ccc1C(=S)NCc1ccc(Br)cc1F
56.5 | O=C(O)Cc1nn(Cc2ccc(Br)cc2F)c(=O)c2ccccc12 [PONALRESTAT]
44 | O=C(O)Cn1c(=O)n(Cc2ccc(Br)cc2F)c(=O)c2ccc(Cl)cc21 [ZENARESTAT]
